Entries after “also recorded” stand apart in the source; their conditions may differ.
Legend:
FicD^L258D = target: T1, FicD^L258D (Homo sapiens, UniProt Q9BVA6, L258D); assay: Differential scanning fluorimetry (DSF) thermal shift with FicD^L258D; assay type: binding; details: for EC50: read-out: EC50 of DSF dose-response (ΔTm)
T1 construct: soluble ER luminal domain (residues 105 to 458) of wild-type human FicD and three mutants; 6xHis-Sumo (N, cleaved yes); made in house; host or cells: Rosetta(DE3) E. coli
T1 sequence (Q9BVA6 105-458 L258D): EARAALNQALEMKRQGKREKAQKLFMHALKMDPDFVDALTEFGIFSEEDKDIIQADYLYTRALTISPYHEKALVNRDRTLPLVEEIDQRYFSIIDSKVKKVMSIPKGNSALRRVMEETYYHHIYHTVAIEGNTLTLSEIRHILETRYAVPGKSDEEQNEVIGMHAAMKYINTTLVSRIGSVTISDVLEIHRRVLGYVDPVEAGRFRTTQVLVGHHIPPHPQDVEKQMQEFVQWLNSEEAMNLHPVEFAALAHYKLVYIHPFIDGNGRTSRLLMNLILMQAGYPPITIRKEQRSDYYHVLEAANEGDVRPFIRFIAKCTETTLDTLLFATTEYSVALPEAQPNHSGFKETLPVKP
Protocol: Differential Scanning Fluorimetry
Thermal shift assays were performed in Biorad CfX384 Touch Real-Time PCR Detection System […]
Reactions contained 50mM HEPES pH 7.4, 200mM NaCl, 200mM KCl, 200uM DTT, 5X Invitrogen Sypro Orange (Cat no. S6650), 8-9μM protein, and indicated nucleotide, cofactor, or small molecule in a total volume of 20uL. For every experiment ‘no protein’ controls were also included with the same reaction conditions. All reactions were performed in technical triplicates. Sealed plates containing reaction mixes were centrifuged for 1-5 min at 1000 RPM prior to temperature scanning (FRET channel), which was performed from 6°C […]
DSF data was analyzed with traditional methods automated in a Python package (https://pypi.org/project/instawell/). Briefly, for each temperature, the RFU values of technical triplicates are averaged. For each timepoint, the background fluorescence was subtracted using the RFU values of the ‘no protein’ control. […]
calculated. The melting temperature (Tm) is defined as the first derivative peak value. Data

VopS = target: T2, VopS (Vibrio parahaemolyticus serotype O3:K6, UniProt Q87P32); assay: In vitro AMPylation of GST-CDC42 by VopS; assay type: biochemical
T2 construct: made in house
T2 sequence (Q87P32 31-387): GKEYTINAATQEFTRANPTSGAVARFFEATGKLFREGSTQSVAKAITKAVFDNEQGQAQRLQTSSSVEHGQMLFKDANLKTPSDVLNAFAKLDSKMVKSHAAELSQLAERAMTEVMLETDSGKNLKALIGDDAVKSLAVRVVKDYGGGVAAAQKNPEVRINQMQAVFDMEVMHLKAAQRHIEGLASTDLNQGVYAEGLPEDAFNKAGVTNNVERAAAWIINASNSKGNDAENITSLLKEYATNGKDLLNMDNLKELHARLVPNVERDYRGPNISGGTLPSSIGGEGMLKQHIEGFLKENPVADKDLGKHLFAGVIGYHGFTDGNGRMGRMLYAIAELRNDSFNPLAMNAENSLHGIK
Text: Finally, we explored the inhibitory effects of GPP/FPP on other Fido proteins to see if these metabolites could serve as generic inhibitors of Fido domains. To test this specificity, we performed in vitro activity assays with GPP/FPP and two constitutively active Fido proteins from bacteria: VopS from Vibrio parahaemolyticus ([25]) and AvrB from Pseudomonas syringae ([30]). […]
visualization. Min-max scaled RFU values and the first derivatives are plotted as a function of temperature in Graphpad Prism 10.6.1. In Prism, the first derivative values are uniformly nudged by -1 to facilitate presenting RFU values and their first derivatives on the same graph.
To generate dose-response curves, ΔTm, was first calculated by subtracting the Tm of the ’no ligand’ control from the Tm of relevant ligand-containing reactions. ΔTm was then plotted as a function of ligand concentration. Dose-response curves were fit using GraphPad Prism 10.6.1 with the [Agonist] vs. Response – Variable Slope (four parameters) model. […]
Dialyzed proteins were then spun down at 21,000G for 15 minutes at 4C to remove trace insoluble material. The protein concentration was measured spectrophotometrically and then diluted to working concentration with 25mM HEPES pH 7.4/100mM KCl/10% glycerol. […] Integrated data was globally analyzed in SEDPHAT 15.b (12) using a model considering a single class of binding sites. […]

maximal Tm shift at saturating ligand concentration (FicD^L258D; FicD^L258D, 5 mM MgCl2)	Structure (SMILES)	EC50 (FicD^L258D; FicD^L258D, 5 mM MgCl2)	binding to FicD^L258D by DSF (FicD^L258D; absence of MgCl2)	binding to FicD^L258D by DSF (FicD^L258D; presence of 5 mM MgCl2)	effect on AMPylation activity of VopS (VopS)	apparent binding (DSF EC50) fold tighter than that of ADP (FicD^L258D; FicD^L258D, 5 mM MgCl2)
~ 10 °C	Nc1ncnc2c1ncn2[C@@H]1O[C@H](COP(=O)(O)OP(=O)(O)O)[C@@H](O)[C@H]1O [ADP]	370 µM	did not bind	binding		
	CC(C)=CCC/C(C)=C/CC/C(C)=C/COP(=O)(O)OP(=O)(O)O [FPP, farnesyl-pyrophosphate]		did not bind	bound	Neither GPP nor FPP affected; also recorded: not inhibited	20 to 30 fold
	CC(C)=CCC/C(C)=C/COP(=O)(O)OP(=O)(O)O [GPP, geranyl-pyrophosphate]	14.8 µM			Neither GPP nor FPP affected	20 to 30 fold

Reference: publication PMC12974487, “Inhibition of FicD-mediated AMPylation and deAMPylation by isoprenoid diphosphates” (Proceedings of the National Academy of Sciences of the …, 2026)
